How the values were obtained:
E. coli S30 extract = test: E. coli S30 extract: inhibition of bacterial protein synthesis (luciferase); assay type: biochemical; details: 37° C. 1 hour
In short: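 Coupled transcription-translation in E. coli S30 extract, programmed with pBESTluc plasmid, was run with 8-point 2-fold compound dilutions for 1 h at 37 °C. After a cold stop, luciferase luminescence was read and percent inhibition calculated against no-inhibitor controls.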

S. aureus (Sa) = test: Broth microdilution MIC, S. aureus; assay type: cell-based; details: Staphylococcus aureus; S. aureus; CAMHB supplemented with sodium bicarbonate 25 mM; read-out: Sa + bicarb 25 (MIC)
In short: (§1)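 Modified CLSI M07-A9 method; cation-adjusted Mueller-Hinton broth, optionally with sodium bicarbonate (25 mM final) or heat-inactivated human serum (0-50%); 5×10^4 CFU/well inoculum.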

P. aeruginosa (Pa) = test: Broth microdilution MIC, P. aeruginosa; assay type: cell-based; details: Pseudomonas aeruginosa; P. aeruginosa; CAMHB supplemented with sodium bicarbonate 25 mM; read-out: Pa + bicarb 25 (MIC)
In short: as §1

E. faecalis (Ef) = test: Broth microdilution MIC, E. faecalis; assay type: cell-based; details: Enterococcus faecalis, E. faecalis; CAMHB supplemented with sodium bicarbonate 25 mM; read-out: Ef + bicarb 25 (MIC)
In short: as §1

[1] = molecular target: Rabbit Reticulocyte Lysate; test: Rabbit Reticulocyte Lysate: inhibition of eukaryotic protein synthesis (luciferase); assay type: biochemical; details: 30° C. 90 minutes, read-out: Retic. IC50
In short: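 Nuclease-treated rabbit reticulocyte lysate translating luciferase control RNA with complete amino acids; compounds in 8-point 2-fold dilutions, 90 min at 30° C. Luminescence read after luciferase reagent; % inhibition versus water (no-inhibitor) control, no-RNA wells as background.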

E. coli (Ec) = test: Broth microdilution MIC, E. coli; assay type: cell-based; details: Escherichia coli; E. coli; CAMHB supplemented with sodium bicarbonate 25 mM; read-out: E. coli + bicarb 25 (MIC)
In short: as §1

A. baumannii (Ab) = test: Broth microdilution MIC, A. baumannii; assay type: cell-based; details: Acinetobacter baumannii, A. baumannii; CAMHB supplemented with sodium bicarbonate 25 mM; read-out: Ab + bicarb 25 (MIC)
In short: as §1

CCN(C[C@H]1CC[C@H](n2ccc(N)nc2=O)CC1)[C@H]1CC[C@H](N)CC1 [Compound 54, 4-amino-1-((trans)-4-((((trans)-4-aminocyclohexyl)(ethyl)amino)methyl)cyclohexyl)pyrimidin-2(1H)-one]
IC50 (E. coli S30 extract): ≥ 1 µM | MIC (S. aureus (Sa)): > 32 mg/L | MIC (P. aeruginosa (Pa)): > 32 mg/L | MIC (E. faecalis (Ef)): > 32 mg/L | IC50 [1]: ≥ 1 µM | MIC (E. coli (Ec)): > 32 mg/L | MIC (A. baumannii (Ab)): > 32 mg/L

Source: patent US20250084041A1, “ANTIMICROBIAL COMPOUNDS AND METHODS” (Curza Global, LLC, priority 2021, published 2025)
